Experimental data from ChEMBL document CHEMBL5385930, “Synthesis, Structure-Activity Relationship Study, Bioactivity, and Nephrotoxicity Evaluation of the Proposed Structure of the Cyclic Lipodepsipeptide Brevicidine B” (J Nat Prod, 2024).
Converted amounts (≈) assume the structure as drawn. Positions of bridges follow the written chain, without caps; N, C: chain ends. Non-standard residues stand in square brackets, D forms with d. Residues, ends and D or L forms follow the SMILES beside them. ξ: configuration not given here. *: point of attachment. Hexanoyl(4ξ-Me) = CCC(C)CCC(=O)*; dOrn = NCCC[C@@H](N)C(=O)O; Orn = NCCC[C@H](N)C(=O)O

Assays:
Staphylococcus aureus [1] = test: Antibacterial activity against Staphylococcus aureus ATCC 25923 assessed as reduction in bacterial growth by microbroth dilution assay; format: functional
Klebsiella pneumoniae [2] = test: Antibacterial activity against Klebsiella pneumoniae ATCC 33495 assessed as reduction in bacterial growth by microbroth dilution assay; format: functional
Klebsiella pneumoniae [3] = test: Antibacterial activity against pandrug-resistant Klebsiella pneumoniae MS6671 assessed as reduction in bacterial growth by microbroth dilution assay; format: functional
Staphylococcus aureus [4] = test: Antibacterial activity against methicillin-resistant Staphylococcus aureus […] assessed as reduction in bacterial growth by microbroth dilution assay; format: functional
Escherichia coli [5] = test: Antibacterial activity against Escherichia coli ATCC 25922 assessed as reduction in bacterial growth by microbroth dilution assay; format: functional
Enterococcus faecalis = test: Antibacterial activity against vancomycin resistant Enterococcus faecalis V583 assessed as reduction in bacterial growth by microbroth dilution assay; format: functional
Acinetobacter baumannii [6] = test: Antibacterial activity against Acinetobacter baumannii ATCC 19606 assessed as reduction in bacterial growth by microbroth dilution assay; format: functional
Pseudomonas aeruginosa = test: Antibacterial activity against Pseudomonas aeruginosa ATCC 27853 assessed as reduction in bacterial growth by microbroth dilution assay; format: functional
Escherichia coli [7] = test: Antibacterial activity against multidrug resistant Escherichia coli MS834 harbouring mcr-1 assessed as reduction in bacterial growth by microbroth dilution assay; format: functional
Acinetobacter baumannii [8] = test: Antibacterial activity against multidrug resistant Acinetobacter baumannii AB5075 assessed as reduction in bacterial growth by microbroth dilution assay; format: functional
Klebsiella pneumoniae [9] = test: Antibacterial activity against Klebsiella pneumoniae ATCC 700603 assessed as reduction in bacterial growth by microbroth dilution assay; format: functional
Staphylococcus aureus [10] = test: Antibacterial activity against methicillin-resistant Staphylococcus aureus NCTC1044 assessed as reduction in bacterial growth by microbroth dilution assay; format: functional
Staphylococcus aureus [11] = test: Antibacterial activity against methicillin-resistant Staphylococcus aureus EMRSA-15 assessed as reduction in bacterial growth by microbroth dilution assay; format: functional
Staphylococcus aureus [12] = test: Antibacterial activity against methicillin-resistant Staphylococcus aureus RA120 assessed as reduction in bacterial growth by microbroth dilution assay; format: functional
[13] = Nephrotoxicity in human Kidney organoid assessed as at 300 uM measured after 48 hrs by bright field imaging analysis; format: toxicity, tissue-based
[14] = Nephrotoxicity in human Kidney organoid assessed as deterioration of renal tubule measured after 48 hrs by bright field imaging analysis; format: toxicity, tissue-based; conditions: dose 100-1000 µM

Molecule | MIC (Staphylococcus aureus [1]) [µg/mL] | MIC (Klebsiella pneumoniae [2]) [µg/mL] | MIC (Klebsiella pneumoniae [3]) [µg/mL] | MIC (Staphylococcus aureus [4]) [µg/mL] | MIC (Escherichia coli [5]) [µg/mL] | MIC (Enterococcus faecalis) [µg/mL] | MIC (Acinetobacter baumannii [6]) [µg/mL] | MIC (Pseudomonas aeruginosa) [µg/mL] | MIC (Escherichia coli [7]) [µg/mL] | MIC (Acinetobacter baumannii [8]) [µg/mL] | MIC (Klebsiella pneumoniae [9]) [µg/mL] | MIC (Staphylococcus aureus [10]) [µg/mL] | MIC (Staphylococcus aureus [11]) [µg/mL] | MIC (Staphylococcus aureus [12]) [µg/mL] | Activity [13] | Activity [14]
CCC(C)CCC(=O)N[C@H](CC(N)=O)C(=O)N[C@@H](Cc1ccc(Br)cc1)C(=O)N[C@H](Cc1c[nH]c2ccccc12)C(=O)N[C@H](CCCN)C(=O)N[C@@H](CCCN)C(=O)NCC(=O)N[C@H](CCCN)C(=O)N[C@@H](Cc1c[nH]c2ccccc12)C(=O)N[C@@H]1C(=O)N[C@@H]([C@@H](C)CC)C(=O)NCC(=O)N[C@@H](CO)C(=O)O[C@@H]1C (stereo not given in full) | > 32 | > 32 | > 32 | > 32 | 32 (≈ 20.2 µM) | > 32 | > 32 | > 32 | > 32 | > 32 | > 32 |  |  |  |  | 
Cc1onc(-c2ccccc2)c1C(=O)N[C@@H]1C(=O)N2[C@@H]1SC(C)(C)[C@@H]2C(=O)O [OXACILLIN] |  |  |  | 128 (≈ 319 µM) |  |  |  |  |  |  |  | 64 (≈ 159 µM) | 64 (≈ 159 µM) | 64 (≈ 159 µM) |  | 
POLYMYXIN B [listing 1 of 2 here] |  | 0.5 | 32 |  | 0.125 |  | 0.5 | 1 | 4 | 0.5 | 0.25 |  |  |  |  | 
POLYMYXIN B [listing 2 of 2 here] |  |  |  |  |  |  |  |  |  |  |  |  |  |  | Toxic | Dose-Dependent Effect
CCC(C)CCC(=O)N[C@H](CC(N)=O)C(=O)N[C@H](Cc1c[nH]c2ccccc12)C(=O)N[C@H](Cc1c[nH]c2ccccc12)C(=O)N[C@H](CCCN)C(=O)N[C@@H](CCCN)C(=O)NCC(=O)N[C@H](CCCN)C(=O)N[C@@H](Cc1c[nH]c2ccccc12)C(=O)N[C@@H]1C(=O)N[C@@H]([C@@H](C)CC)C(=O)NCC(=O)N[C@@H](CO)C(=O)O[C@@H]1C (stereo not given in full) ({Hexanoyl(4ξ-Me)}-[dN][dW][dW][dOrn][Orn]G[dOrn]WTIGS; ester 9-C) | > 32 | 16 (≈ 10.4 µM) | > 32 | > 32 | 32 (≈ 20.7 µM) | > 32 | > 32 | 32 (≈ 20.7 µM) | 32 (≈ 20.7 µM) | 32 (≈ 20.7 µM) | 32 (≈ 20.7 µM) |  |  |  |  | 
C[C@@H](O)[C@H]1C(=O)N2C(C(=O)O)=C(S[C@@H]3CN[C@H](C(=O)N(C)C)C3)[C@H](C)[C@H]12 [MEROPENEM] |  | 0.062 (≈ 0.162 µM) | 32 (≈ 83.4 µM) |  | 0.031 (≈ 0.0808 µM) |  | 0.5 (≈ 1.3 µM) | 0.25 (≈ 0.652 µM) | 0.062 (≈ 0.162 µM) | 32 (≈ 83.4 µM) | 0.062 (≈ 0.162 µM) |  |  |  |  | 
CCC(C)CCC(=O)N[C@H](CC(N)=O)C(=O)N[C@@H](Cc1ccccc1)C(=O)N[C@H](Cc1c[nH]c2ccccc12)C(=O)N[C@H](CCCN)C(=O)N[C@@H](CCCN)C(=O)NCC(=O)N[C@H](CCCN)C(=O)N[C@@H](Cc1c[nH]c2ccccc12)C(=O)N[C@@H]1C(=O)N[C@@H]([C@@H](C)CC)C(=O)NCC(=O)N[C@@H](CO)C(=O)O[C@@H]1C (stereo not given in full) | > 32 | > 32 | > 32 | > 32 | > 32 | > 32 | > 32 | > 32 | > 32 | > 32 | > 32 |  |  |  |  | 
